From ChEMBL document CHEMBL3864161, “5-Aminopyrazole-4-carboxamide analogues are selective inhibitors of Plasmodium falciparum microgametocyte exflagellation and potential malaria transmission blocking agents” (Bioorg Med Chem Lett, 2016)

How the values were obtained:
[1] = Cytotoxicity against human CRL8155 cells assessed as growth inhibition after 48 to 72 hrs by Alamar blue assay; type: toxicity, cell-based
[2] = Inhibition of recombinant Plasmodium falciparum CDPK4 S147M mutant using Syntide 2 as substrate assessed as decrease in depletion of ATP by Kinase glo luciferase assay
[3] = Cytotoxicity against human HepG2 cells assessed as growth inhibition after 48 to 72 hrs by Alamar blue assay; type: toxicity, cell-based
Plasmodium falciparum [4] = assay: Inhibition of male gametocytes exflagellation of Plasmodium falciparum at 1 uM relative to control; type: functional
Plasmodium falciparum [5] = assay: microbe, parasite or virus in culture; conditions: read-out: INH
[6] = target: T1, Calmodulin-domain protein kinase 1 (Toxoplasma gondii, UniProt Q9BJF5)
T1 sequence (Q9BJF5 whole entry): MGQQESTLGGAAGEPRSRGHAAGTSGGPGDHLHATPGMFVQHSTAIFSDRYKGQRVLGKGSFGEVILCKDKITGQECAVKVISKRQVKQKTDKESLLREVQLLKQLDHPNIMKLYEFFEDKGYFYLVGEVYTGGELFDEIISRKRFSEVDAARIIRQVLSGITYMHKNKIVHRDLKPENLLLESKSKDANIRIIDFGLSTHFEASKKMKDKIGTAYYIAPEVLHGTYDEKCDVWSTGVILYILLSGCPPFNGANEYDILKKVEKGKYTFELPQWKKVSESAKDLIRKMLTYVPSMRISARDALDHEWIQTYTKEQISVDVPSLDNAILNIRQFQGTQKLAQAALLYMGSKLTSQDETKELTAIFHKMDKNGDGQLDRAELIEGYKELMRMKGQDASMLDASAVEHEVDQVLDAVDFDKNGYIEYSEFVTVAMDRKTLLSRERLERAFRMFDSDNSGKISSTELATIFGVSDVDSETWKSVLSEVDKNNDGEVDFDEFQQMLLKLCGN

[7] = target: Proto-oncogene tyrosine-protein kinase Src (Homo sapiens, UniProt P12931)
Chain of Proto-oncogene tyrosine-protein kinase Src (P12931 2-536 limits assumed): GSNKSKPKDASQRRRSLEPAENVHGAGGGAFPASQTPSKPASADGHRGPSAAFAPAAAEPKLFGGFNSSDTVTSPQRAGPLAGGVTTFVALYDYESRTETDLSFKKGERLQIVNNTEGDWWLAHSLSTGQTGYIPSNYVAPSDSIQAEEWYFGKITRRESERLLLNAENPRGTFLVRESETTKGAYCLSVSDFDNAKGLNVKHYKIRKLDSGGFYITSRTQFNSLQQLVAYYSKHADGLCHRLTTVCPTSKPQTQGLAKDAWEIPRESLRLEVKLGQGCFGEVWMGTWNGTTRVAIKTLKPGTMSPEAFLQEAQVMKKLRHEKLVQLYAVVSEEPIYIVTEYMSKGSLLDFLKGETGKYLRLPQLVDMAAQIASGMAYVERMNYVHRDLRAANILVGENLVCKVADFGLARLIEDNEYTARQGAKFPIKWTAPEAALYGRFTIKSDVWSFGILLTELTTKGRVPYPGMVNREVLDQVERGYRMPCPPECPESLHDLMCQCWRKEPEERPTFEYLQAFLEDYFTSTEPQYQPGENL

Compound	EC50 [1] [µM]	IC50 [2] [µM]	EC50 [3] [µM]	inhibition at 1 µM (Plasmodium falciparum [4]) [%]	inhibition at 0.1 µM (Plasmodium falciparum [5]) [%]	IC50 [6] [µM]	IC50 [7] [µM]
CCOc1ccc2cc(-c3nn(C(C)(C)C)c(N)c3C(N)=O)ccc2c1	> 30	> 2	> 30	87	–	–	–
NC(=O)c1c(-c2ccc3ccccc3c2)nn(CC(F)(F)F)c1N	> 30	> 2	> 30	87	–	–	–
CC(C)(C)n1nc(-c2ccc3cc(O)ccc3c2)c(C(N)=O)c1N	> 30	> 2	> 30	87	64	–	–
CCOc1ccc2cc(-c3nn(C(C)(C)C)c(N)c3C(N)=O)cnc2c1	> 30	> 2	> 30	–	–	–	–
CCOc1ccc2cc(-c3nn(C(C)C)c(N)c3C(N)=O)ccc2n1	–	–	–	–	–	0.007	–
CC(C)(C)n1nc(-c2ccc3nc(OC4CC4)ccc3c2)c(C(N)=O)c1N	–	–	–	–	–	0.005	–
CC(C)(C)n1nc(-c2cnc3cc(OC4CC4)ccc3c2)c(C(N)=O)c1N	> 30	> 2	> 30	–	–	–	–
CCOc1ccc2cc(-c3nn(C(C)C)c(N)c3C(N)=O)cnc2c1	> 30	> 2	> 30	87	–	–	–
COc1ccc2cc(-c3nn(C(C)(C)C)c(N)c3C(N)=O)cnc2c1	> 30	> 2	> 30	87	–	–	–
CCOc1ccc2cc(-c3nn(CC(C)(C)CO)c(N)c3C(N)=O)cnc2c1	> 30	> 2	> 30	87	81	–	> 10
CCOc1ccc2cc(-c3nn(C4CCCCC4)c(N)c3C(N)=O)ccc2n1	> 30	> 2	> 30	87	39	0.006	–
CC(C)n1nc(-c2ccc3nc(OC4CCC4)ccc3c2)c(C(N)=O)c1N	> 30	> 2	> 30	87	–	0.008	–
CCOc1ccc2cc(-c3nn(C(C)C4CC4)c(N)c3C(N)=O)cnc2c1 (stereo unspecified)	–	–	–	–	–	0.014	–
CCOc1ccc2cc(-c3nn(C(C)C(C)C)c(N)c3C(N)=O)cnc2c1 (stereo unspecified)	–	–	–	–	–	0.018	–
CCOc1ccc2cc(-c3nn(C4CCOC4)c(N)c3C(N)=O)cnc2c1 (stereo unspecified)	–	–	–	–	–	0.012	> 10
CCOc1ccc2cc(-c3nn(C(C)C(C)(C)CO)c(N)c3C(N)=O)cnc2c1 (stereo unspecified)	–	–	–	–	–	0.024	–
